From ChEMBL document CHEMBL5107986, “Small molecule NS5B RdRp non-nucleoside inhibitors for the treatment of HCV infection: A medicinal chemistry perspective” (Eur J Med Chem, 2022)

Tests used:
Assay type in all cases: functional, organism-based, Hepacivirus hominis
[1] = test system: Hepatitis C virus; assay: Antiviral activity against intrinsic HCV GT1a assessed as reduction in viral replication
[2] = test system: Hepatitis C virus; assay: Antiviral activity against HCV GT1b assessed as reduction in viral replication
[3] = test system: Hepatitis C virus; assay: Antiviral activity against HCV GT1b assessed as inhibition of viral replication
[4] = test system: Hepatitis C virus; assay: Antiviral activity against HCV GT1b C316Y assessed as reduction in viral replication
[5] = test system: Hepatitis C virus; assay: Antiviral activity against HCV GT1b 316N assessed as reduction in viral replication
[6] = test system: Hepatitis C virus; assay: Antiviral activity against intrinsic HCV GT2a assessed as reduction in viral replication

| Structure (SMILES) | EC50 [1] [nM] | EC50 [2] [nM] | further results |
| --- | --- | --- | --- |
| CC(C)N(c1cc(C#CC(C)(C)C)sc1C(=O)O)C(=O)[C@H]1CC[C@H](C)CC1 | 5.5 | – | – |
| COc1ccc2c(c1)C=C1Cn3c-2c(C2CCCCC2)c2ccc(cc23)C(=O)NS(=O)(=O)N(C)CCCCN(C)C1=O | – | 75 | IC50 [3]: 26 nM |
| O=C1N/C(=N\c2nnc(-c3ccc(Cl)cc3)s2)S/C1=C\c1c(Cl)cccc1Cl | – | – | IC50 [3]: 5600 nM |
| O=C1N/C(=N\c2nnc(-c3ccc(F)cc3)s2)S/C1=C\c1c(Cl)cccc1Cl | – | – | IC50 [3]: 19800 nM |
| CNC(=O)c1c(-c2ccc(F)cc2)oc2cc(N(Cc3ccc(B(O)O)c(F)c3)S(C)(=O)=O)c(C3CC3)cc12 | – | 1.7 | EC50 [4]: 1.9 nM |
| CC(C)(C)C#Cc1cc(N(C(=O)[C@H]2CC[C@H](C)CC2)[C@H]2CC[C@H](Oc3cccnc3)CC2)c(C(=O)O)s1 | 3.6 | – | – |
| CC(C)(C)C#Cc1cc(N(C(=O)[C@H]2CC[C@H](C)CC2)[C@H]2CC[C@H](OC3CCOC3)CC2)c(C(=O)O)s1 (stereo partly specified) | 8.1 | – | – |
| CC(C)(C)C#Cc1cc(N(C(=O)[C@H]2CC[C@H](C)CC2)[C@H]2CC[C@](O)(CO[C@H]3CCOC3)CC2)c(C(=O)O)s1 | 2.2 | – | – |
| CC1=CC[C@H](C(=O)N(c2cc(C#CC(C)(C)C)sc2C(=O)O)C(C)C)CC1 | 2.2 | – | – |
| CNC(=O)c1c(-c2ccc(F)cc2)oc2cc(N(c3cc(Cl)c4c(c3)COB4O)S(C)(=O)=O)c(C3CC3)cc12 | 1.3 | 2.5 | EC50 [5]: 2.5 nM |
| CNC(=O)c1c(-c2ccc(F)cc2)oc2cc(N(C)S(C)(=O)=O)c(-c3cccc(CNS(=O)(=O)c4cccc(OC)c4)c3)cc12 | – | 1 | EC50 [6]: 6 nM |
| CNC(=O)c1c(-c2ccc(F)cc2)oc2cc(N(C)S(C)(=O)=O)c(-c3ccc(OC)c(-c4nc5c(F)cccc5o4)c3)cc12 | – | 3.1 | EC50 [4]: 9.2 nM |
| CNC(=O)c1c(-c2ccc(F)cc2)oc2cc(N(C)S(C)(=O)=O)c(-c3ccccc3)cc12 | – | 120 | – |
| CNC(=O)c1c(-c2ccc(F)cc2)oc2cc(N(C)S(C)(=O)=O)c(-c3ccc(OC)cc3)cc12 | – | 16 | EC50 [6]: 60 nM |
| CNC(=O)c1c(-c2ccc(F)cc2)oc2cc(N(CCO)S(C)(=O)=O)c(-c3ccccc3)cc12 | – | 62 | – |
| Cn1c(-c2ncc(Br)cn2)c(C2CCCC2)c2ccc(C(=O)NC3(c4nc5ccc(/C=C/C(=O)O)cc5[nH]4)CCC3)cc21 | – | 11 | IC50 [3]: 50 nM |
| CNC(=O)c1c(-c2ccc(F)cc2)oc2cc(N(C)S(C)(=O)=O)c(-c3ccc4c(n3)-c3cc5c(F)cccc5n3CO4)cc12 [MK-8876] | – | 2.2 | EC50 [4]: 7.3 nM; EC50 [6]: 2.7 nM |
| CNC(=O)c1c(-c2ccc(F)cc2)oc2cc(N(CCO)S(C)(=O)=O)c(C3CC3)cc12 [NESBUVIR] | – | 18 | EC50 [5]: 170 nM |
| CC1=CC[C@H](C(=O)N(c2cc(C#CC(C)(C)C)sc2C(=O)O)[C@H]2CC[C@](O)(CO[C@H]3CCOC3)CC2)CC1 [RADALBUVIR] | 2.9 | 6 | – |
